# Values joined by “and” are separate entries in the source; they are usually repeats but may differ in a detail not shown here. Equal values may be shown once.
# Assays:
# [1] = system: 2019 Novel Coronavirus, Isolate USA-WA1/2020 (SARS-CoV-2); assay: TCID50 test of SARS-CoV-2 recovered from PCA-coated test substrates (plastic, cloth, mesh), titrated on Vero E6 cells; format: cell-based; conditions: for log difference: versus virus control on substrate; for TCID50 Log10/mL: single replicates
# Protocol: The Test Article (TA) used for this study was Protocatechuic Acid (PCA). The TA was received as an off-white powder. The PCA solution was prepared to be 30% PCA w/v in Ethanol. The PCA was prepared in 5 g increments to pre-warmed 50-60 mL ethanol until dissolved for a total of 30 g PCA in the solution. Additional ethanol was then added volumetrically to be equivalent to 100 mL.
# The Test Substrates (TS) were a Plastic-type material sourced from a clear plastic laboratory bottle (Corning 431731 Octagonal bottle, 150 mL), cloth (the top layer of a N95 mask [3M 8210]), and a Sponsor-provided wire mesh to serve as a substrate for the TA. All test substrates were cut to approximately 1″×1″ in size. The test substrates were submerged into the PCA solution and dried horizontally to allow for even coating. After the substrate was thoroughly dried, the test substrate was re-submerged into the PCA solution for an additional coating.
# The Test Virus used for this study was 2019 Novel Coronavirus, Isolate USA-WA1/2020 (SARS-CoV-2). The virus was stored at approximately […] prior to use. The multiplicity of infection (MOI) was 0.01 TCID50/cell.
# The Cell Culture used for the TCID50 test was African Green Monkey Kidney Cells (Vero E6 cells) that were maintained in Dulbecco's […] with 10% fetal calf serum (DMEM-2). All growth media contained heat-inactivated fetal calf serum and antibiotics.
# The test design is shown below in Table 1.
# The Test Substrate was coated with PCA as described above. The test substrates was treated with PCA twice and allowed to fully dry overnight. In general, the time from the first coat to the next day's virus exposure was approximately 24 hours.
# The treated Test Substrate plus TA was placed into a sterile 6 well cell culture plate and approximately 100 μL total of a ≤1×10^6 TCID50/mL SARS-CoV-2 virus was such that 50 μL of virus was layered on each sides of the treated test substrates. This was the procedure used for the initial Day 1 experiment.
# For the confirmatory test, in an attempt to increase the recorded titer of the controls, the treated Test Substrate plus TA was placed into a sterile 6 well cell culture plate and the same amount of virus was layered onto both sides of the test substrate. However, an addition 50 μL of DMEM was added to each side to reduce the inactivation of the virus due to desiccation. Additionally, a glass coverslip was also added to help mitigate against evaporation.
# After application of the virus, the virus was contact with the Test substrates for approximately 10 minutes (Groups 1, 2, and 3, Control groups 7, 8, and 9), 60 minutes (Groups 4, 5, and 6, Control Groups 10, 11, and 12). Each substrate per time per test article was performed in duplicate.
# A cell culture-only control was included to indicate that cells without any TA or virus remain healthy throughout the assay. Virus-only controls without substrate was added for each timepoint to verify that the assay was performing as expected.
# After the incubation time, the treated substrate was washed with 1 mL of cell culture media (DMEM-2) for approximately 5-10 minutes within the 6 well cell culture plate and the glass cover slip removed if necessary. This was the equivalent to a 10-fold dilution. The plate was gently stirred via an orbital shaker to enhance the recovery of the virus.
# For the TCID50, the cell culture media (DMEM-2) used to wash the Test Substrate was serially diluted 10 fold and transferred into respective wells of a 96-well plate which contained a monolayer of African Green Monkey Kidney Cells (Vero E6 cells) for titration. The TCID50 assay was performed non-GLP according to IITRI Standard Operating Procedures for the assay. The TCID50 titers was calculated using the method of Reed-Meunch.
# SARS CoV-2 virus = assay: Second laboratory coupon test: virus dried on PCA-coated coupons (stainless steel, K95 mask, plastic), recovered and titrated on Vero E6 cells by CPE; format: cell-based; parameters: : unit not given here; conditions: for Average Log10 TCID50 / Average TCID50: 3 replicates; for  / Log10 TCID50 / TCID50: single replicates; for TCID50: virus dried 45 minutes-1 h
# Protocol: The second laboratory utilized test coupons made of solid stainless steel, plastic and K95 mask were coated in 30% w/v PCA in 70% ethanol. Each coupon was dipped in PCA, allowed to dry, dipped again and allowed to dry with the opposite side of the coupon facing up. Once dry, 200 ul virus was added to each coupon and allowed to dry (45 minutes-1 h drying time). Virus was recovered by adding 2 ml DMEM/F12 media and washing the coupon, without scraping so as not to dislodge PCA crystals. A yellow color change in the media was observed indicating acidification of the media upon addition to the PA-coated coupon. The recovered virus was added to empty 96 well plates and diluted 1:10 down the plate. This was then added to Vero E6 cells that had grown to ˜70% confluence. Cytotoxicity controls without virus and recovery controls without PCA were also done in the same manner. After addition to the cells, plates were read at day 4 for the presence of cytopathic effect (CPE) due to viral infection of cells. Note that cytotoxicity and CPE cannot be differentiated in this assay, thus any dead cells are marked as positive.
# Cytotoxicity was seen up to 1:100 dilution for the K95, and 1:10 for the stainless steel and plastic coupons. […] The SS=stainless steel, K95=K95 mask and P=plastic. +PCA means coupons coated with PCA. No PCA (e.g. SS-1) indicates virus recovery controls with no PCA coating that had virus dried and recovered.
# [2] = cited from earlier work
# [3] = in vivo; cited from earlier work
# [4] = confirmatory run (Day 2), PCA on cloth, 10 min
# [5] = confirmatory run (Day 2), PCA on cloth, 60 min
# [6] = confirmatory run (Day 2), PCA on mesh, 10 min
# [7] = confirmatory run (Day 2), PCA on mesh, 60 min
# [8] = confirmatory run (Day 2), PCA on plastic, 10 min
# [9] = confirmatory run (Day 2), PCA on plastic, 60 min
# [10] = initial run (Day 1), PCA on cloth, 60 min incubation
# [11] = initial run (Day 1), PCA on mesh, 60 min incubation
# [12] = initial run (Day 1), PCA on plastic, 10 min incubation
# [13] = initial run (Day 1), PCA on plastic, 60 min incubation
# [14] = K95 mask coupon coated with PCA versus uncoated coupon
# [15] = K95 mask coupon coated with PCA
# [16] = plastic coupon coated with PCA versus uncoated coupon
# [17] = stainless steel coupon coated with PCA versus uncoated coupon
# [18] = stainless steel coupon coated with PCA
smiles,measurement,setting,value
"O=C(O)c1ccc(O)c(O)c1 [PCA, Protocatechuic acid]",Log average,[1]; [4],4.25 TCID50 Log10/mL
same,log difference,[1]; [4],−1.13 log
same,Log average,[1]; [5],2.75 TCID50 Log10/mL
same,log difference,[1]; [5],−2.38 log
same,Log average,[1]; [6],4.63 TCID50 Log10/mL
same,log difference,[1]; [6],−1.13 log
same,Log average,[1]; [7],4.38 TCID50 Log10/mL
same,log difference,[1]; [7],−0.88 log
same,Log average,[1]; [8],4.38 TCID50 Log10/mL
same,log difference,[1]; [8],−1.13 log
same,Log average,[1]; [9],3.63 TCID50 Log10/mL
same,log difference,[1]; [9],−1.50 log
same,TCID50 Log10/mL,"[1]; confirmatory run (Day 2, extra DMEM and coverslip), PCA on cloth, 10 min",4.25 TCID50 Log10/mL
same,TCID50 Log10/mL,"[1]; confirmatory run (Day 2, extra DMEM and coverslip), PCA on cloth, 60 min",2.00 TCID50 Log10/mL and 3.50 TCID50 Log10/mL
same,TCID50 Log10/mL,"[1]; confirmatory run (Day 2, extra DMEM and coverslip), PCA on mesh, 10 min",4.75 TCID50 Log10/mL and 4.50 TCID50 Log10/mL
same,TCID50 Log10/mL,"[1]; confirmatory run (Day 2, extra DMEM and coverslip), PCA on mesh, 60 min",4.50 TCID50 Log10/mL and 4.25 TCID50 Log10/mL
same,TCID50 Log10/mL,"[1]; confirmatory run (Day 2, extra DMEM and coverslip), PCA on plastic, 10 min",4.25 TCID50 Log10/mL and 4.50 TCID50 Log10/mL
same,TCID50 Log10/mL,"[1]; confirmatory run (Day 2, extra DMEM and coverslip), PCA on plastic, 60 min",3.50 TCID50 Log10/mL and 3.75 TCID50 Log10/mL
same,virucidal effect on the SARS CoV2 virus,"[1]; in 10 minutes, virus droplet on PCA coating, aqueous environment",virucidal effect
same,TCID50 Log10/mL,"[1]; initial run (Day 1), PCA on cloth (N95 top layer), 10 min incubation",2.75 TCID50 Log10/mL
same,log difference,"[1]; initial run (Day 1), PCA on cloth, 10 min",−1.25 log
same,Log average,"[1]; initial run (Day 1), PCA on cloth, 10 min incubation",2.75 TCID50 Log10/mL
same,log difference,"[1]; initial run (Day 1), PCA on cloth, 60 min",−1.00 log
same,Log average,[1]; [10],2.75 TCID50 Log10/mL
same,TCID50 Log10/mL,[1]; [10],2.50 TCID50 Log10/mL and 3.00 TCID50 Log10/mL
same,log difference,"[1]; initial run (Day 1), PCA on mesh, 10 min",−0.25 log
same,Log average,"[1]; initial run (Day 1), PCA on mesh, 10 min incubation",3.38 TCID50 Log10/mL
same,log difference,"[1]; initial run (Day 1), PCA on mesh, 60 min",−2.00 log
same,Log average,[1]; [11],1.50 TCID50 Log10/mL
same,TCID50 Log10/mL,[1]; [11],1.00 TCID50 Log10/mL and 2.00 TCID50 Log10/mL
same,log difference,"[1]; initial run (Day 1), PCA on plastic, 10 min",−0.63 log
same,Log average,[1]; [12],3.75 TCID50 Log10/mL
same,TCID50 Log10/mL,[1]; [12],3.75 TCID50 Log10/mL
same,log difference,"[1]; initial run (Day 1), PCA on plastic, 60 min",−1.13 log
same,Log average,[1]; [13],2.88 TCID50 Log10/mL
same,TCID50 Log10/mL,[1]; [13],3.25 TCID50 Log10/mL and 2.50 TCID50 Log10/mL
same,TCID50 Log10/mL,"[1]; initial run (Day 1), PCA on wire mesh, 10 min incubation",3.50 TCID50 Log10/mL and 3.25 TCID50 Log10/mL
same,Log Reduction to Virus Controls,SARS CoV-2 virus; [14],2.45
same,Percent Log Reduction,SARS CoV-2 virus; [14],99.65%
same,Average Log10 TCID50,SARS CoV-2 virus; [15],2.10
same,Average TCID50,SARS CoV-2 virus; [15],182.4589
same,,SARS CoV-2 virus; [15],0.03162 and 0.05012 and 0.3162
same,Log10 TCID50,SARS CoV-2 virus; [15],2.50 and 2.30 and 1.50
same,TCID50,SARS CoV-2 virus; [15],316.2278 and 199.5262 and 31.62
same,Log Reduction to Virus Controls,SARS CoV-2 virus; [16],3.94
same,Percent Log Reduction,SARS CoV-2 virus; [16],99.99%
same,Average Log10 TCID50,SARS CoV-2 virus; plastic coupon coated with PCA,1.91
same,Average TCID50,SARS CoV-2 virus; plastic coupon coated with PCA,88
same,,SARS CoV-2 virus; plastic coupon coated with PCA,0.1995 and 0.07943 and 0.1136
same,Log10 TCID50,SARS CoV-2 virus; plastic coupon coated with PCA,1.70 and 2.10 and 1.94
same,TCID50,SARS CoV-2 virus; plastic coupon coated with PCA,50.12 and 125.8925 and 87.99
same,Log Reduction to Virus Controls,SARS CoV-2 virus; [17],2.93
same,Percent Log Reduction,SARS CoV-2 virus; [17],99.88%
same,Average Log10 TCID50,SARS CoV-2 virus; [18],2.37
same,Average TCID50,SARS CoV-2 virus; [18],298.9493
same,,SARS CoV-2 virus; [18],0.01995 and 0.1259 and 0.03162
same,Log10 TCID50,SARS CoV-2 virus; [18],2.70 and 1.90 and 2.50
same,TCID50,SARS CoV-2 virus; [18],501.1872 and 79.43 and 316.2278
same,solubility in water,[2],approximately 10 mg/ml
same,LD50,[3],800 mg/kg
